Assay results: publication PMC6429356, “Development of Anthraquinone Analogues as Phosphoglycerate Mutase 1 Inhibitors” (Molecules, 2019)
“Also recorded” adds a separate entry of the source. Where two headings read alike, the source gives them in different places.

How the values were obtained:
[1] = test system: A549 cells; assay: Cell viability assay (MTT, 72 h), A549; assay type: cell-based; conditions: Homo sapiens, proliferation, mean ± s.d. (n = 3)
Method: (§1) The H1299 cell line was obtained from Guangzhou Jenniobio Biotechnology Co., Ltd. (Guangzhou, China), PC9 and A549 cells were gifted from Deng Jiong’s lab in the School of Medicine, Shanghai Jiao Tong University, Shanghai, China). H1299, PC9 cells were cultured in RPMI-1640 medium and A549 cells were cultured in F-12K medium containing 10% fetal bovine serum (FBS), 100 units/mL of Penicillin and 100 μg/mL Streptomycin. In cell viability assays, 2000 H1299 cells, A549 cells or 1000 PC9 cells per well were seeded in 96-well plate. After attachment for 24 h, the cells were treated with indicated inhibitor for 72 h. After incubation with 0.5 mg/mL methylthiazolyldiphenyl-tetrazolium bromide (MTT) for 4 h, cell viability was measured as the OD at 570 nm.

[2] = test system: PC9 cells; assay: Cell viability assay (MTT, 72 h), PC9; assay type: cell-based; conditions: Homo sapiens, PC-9, proliferation, mean ± s.d. (n = 3)
Method: as §1

[3] = test system: enolase-pyruvate kinase-LDH; assay: Counter screening: control linked enzyme assay with 2PG; assay type: biochemical; conditions: 0.5 μM compound, pyruvate kinase M2, LDH without PGAM1, mean ± s.d. (n = 2)
Method: (§2) Firstly, 1 μL inhibitor in dimethyl sulfoxide (DMSO) incubated with 49 μL 4.6 nM recombinant PGAM1, then 50 μL enzyme mix containing 3 units/mL enolase (Sigma-Aldrich, Saint Louis, MO, USA), 3 units/mL recombinant pyruvate kinase M2 (Sigma-Aldrich), 0.6 units/mL recombinant lactatdehydrogenase (LDH, Sigma-Aldrich), 100 mM Tris-HCl, 100 mM KCl, 5 mM MgCl2, 1 mM adenosine diphosphate (ADP), 0.2 mM the reduced form of nicotinamide adenine dinucleotide (NADH) and 4 mM 3PG was added. PGAM1 activity was measured as the decrease in OD at 340 nm. In addition, we performed a counter screening in which 4mM 2PG was added to 50 μL reaction mix containing the indicated inhibitor, 3 units/mL enolase (Sigma-Aldrich), 3 units/mL recombinant pyruvate kinase M2 (Sigma-Aldrich), 0.6 units/mL recombinant LDH (Sigma-Aldrich), 100 mM Tris-HCl, 100 mM KCl, 5 mM MgCl2, 1 mM ADP and 0.2 mM NADH. The other three enzyme activity was measured as the decrease in OD at 340 nm.

[4] = test system: H1299 cells; assay: Cell viability assay (MTT, 72 h), H1299; assay type: cell-based; conditions: Homo sapiens, NCI-H1299, proliferation, mean ± s.d. (n = 3)
Method: as §1

[5] = biological target: T1, PGAM1 (Homo sapiens, UniProt P18669); assay: PGAM1 enzymatic assay (enolase-pyruvate kinase-LDH coupled, OD 340 nm); assay type: biochemical; conditions: optimized enzymatic assay; mean ± s.d. (n = 3)
T1 construct: His6 (C); made in house
Method: as §2

[6] = Solubility; assay type: physicochemical; conditions: remark in text, no method given
[7] = test system: PGAM1 mutations (F22A, R116H and R191H); assay: Inhibition of PGAM1 mutants compared with wild type; assay type: biochemical; conditions: 5 μM compound
Excerpt: To further understand the molecular mechanism of the anthraquinone derivatives interacting with PGAM1, we determined the X-ray structure of PGAM1 in complex with compound 9i at resolution of 1.98 Å (Table 5). Compound 9i occupied a novel allosteric site adjacent to substrate binding site with nice electron density (Figure 3A,B). The allosteric pocket was surrounded by the residues of F22, R90, K100, R116 and R191. In detail, the anthraquinone scaffold and sulfonamide of compound 9i interacted with the main chain carbonyl of K100 through water bridges (Figure 3C). In addition, a hydrophobic interaction was observed between F22 and chlorine-substituted phenyl ring of compound 9i (Figure 3C). […]
Firstly, 1 μL inhibitor in dimethyl sulfoxide (DMSO) incubated with 49 μL 4.6 nM recombinant PGAM1, then 50 μL enzyme mix containing 3 units/mL enolase (Sigma-Aldrich, Saint Louis, MO, USA), 3 units/mL recombinant pyruvate kinase M2 (Sigma-Aldrich), 0.6 units/mL recombinant lactatdehydrogenase (LDH, Sigma-Aldrich), 100 mM Tris-HCl, 100 mM KCl, 5 mM MgCl2, 1 mM adenosine diphosphate (ADP), 0.2 mM the reduced form of nicotinamide adenine dinucleotide (NADH) and 4 mM 3PG was added. PGAM1 activity was measured as the decrease in OD at 340 nm. […] The other three enzyme activity was measured as the decrease in OD at 340 nm. […]

[8] = biological target: T1, PGAM1; assay: Substrate competitive assay with 3PG; assay type: biochemical
[9] = test system: H1299 cells; set-up: method as in PMID 28611670, PMID 23153533, PMID 29530347; conditions: Figure 1; read-out: H1299 cells IC50 (reported inhibitors); cited from earlier work
[10] = biological target: T1, PGAM1; set-up: method as in PMID 16200062, PMID 28611670, PMID 23153533, PMID 29530347; conditions: Figure 1; read-out: PGAM1 IC50 (reported inhibitors); cited from earlier work
[11] = test system: MDA-MB-231 cells; set-up: method as in PMID 16200062; conditions: Figure 1; read-out: MDA-MB-231 cells IC50 (reported inhibitor); cited from earlier work

T1 sequence (P18669 whole entry): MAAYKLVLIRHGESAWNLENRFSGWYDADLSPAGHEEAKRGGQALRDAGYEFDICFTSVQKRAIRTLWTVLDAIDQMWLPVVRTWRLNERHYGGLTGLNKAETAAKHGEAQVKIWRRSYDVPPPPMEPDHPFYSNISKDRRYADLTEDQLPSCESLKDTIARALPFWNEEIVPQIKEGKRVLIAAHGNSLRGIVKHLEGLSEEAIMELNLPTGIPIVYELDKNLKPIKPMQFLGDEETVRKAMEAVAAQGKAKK

For O=C1c2ccccc2C(=O)c2c1cc(NS(=O)(=O)c1ccc(OC(F)(F)F)cc1)c(O)c2O [Compound 9c, N-(3,4-Dihydroxy-9,10-dioxo-9,10-dihydroanthracen-2-yl)-4-(trifluoromethoxy) benzenesulfonamide], the IC50 [1] was 8 ± 0.8 µM, the IC50 [2] was 10.2 ± 0.7 µM and the “Inhibition in the Control Linked Enzyme Assay (0.5 μM)” value (from here on “Inhibition … (0.5 μM)”) [3] was 3.7 ± 1.8%. For the same compound, the IC50 [4] was 16.6 ± 1.8 µM and the IC50 [5] was 0.9 ± 0.07 µM.
With O=C1c2ccccc2C(=O)c2c1cc(NS(=O)(=O)c1ccc(Cl)cc1)c(O)c2O [Compound 9i, 4-Chloro-N-(3,4-dihydroxy-9,10-dioxo-9,10-dihydroanthracen-2-yl) benzenesulfonamide] the IC50 [1] was 12.7 ± 2.7 µM, the Solubility [6] was “good solubility” and the IC50 [2] was 13.8 ± 1 µM. For the same compound, the “Inhibition of PGAM1 mutations versus wild type” value [7] was “failed to inhibit mutations of PGAM1 (F22A, R116H and R191H) as effectively as the wild type”, the “Mode of inhibition with respect to substrate 3PG” value [8] was “noncompetitive inhibitor; also recorded: non-competitive; also recorded: noncompetitive binding” and the “Inhibition … (0.5 μM)” value [3] was −6.4 ± 5.0%. For the same compound, the IC50 [4] was 6.9 ± 1.2 µM and the IC50 [5] was 0.27 ± 0.04 µM.
In the case of O=C1c2ccccc2C(=O)c2c1cc(NS(=O)(=O)c1c(Cl)cc(Cl)cc1Cl)c(O)c2O [Compound 9l, 2,4,6-Trichloro-N-(3,4-dihydroxy-9,10-dioxo-9,10-dihydroanthracen-2-yl) benzenesulfonamide], the IC50 [1] is reported as > 50 µM, the IC50 [2] is reported as > 50 µM and the “Inhibition … (0.5 μM)” value [3] is reported as 0.2 ± 1.7%. The IC50 [4] was 6.2 ± 1.2 µM and the IC50 [5] was 0.9 ± 0.26 µM.
In the case of O=C1c2ccccc2C(=O)c2c1cc(NS(=O)(=O)c1ccc(I)cc1)c(O)c2O [Compound 9p, 4-Iodo-N-(3,4-dihydroxy-9,10-dioxo-9,10-dihydroanthracen-2-yl) benzenesulfonamide], the IC50 [1] is reported as 10.3 ± 1.4 µM, the IC50 [2] is reported as 13.4 ± 1.8 µM and the “Inhibition … (0.5 μM)” value [3] is reported as 1.9 ± 0.1%. The IC50 [4] was 17.3 ± 3.9 µM and the IC50 [5] was 0.47 ± 0.07 µM.
In the case of O=c1c2c(O)cccc2oc2cc(NS(=O)(=O)c3ccc(N4CCCC4)cc3)c(O)c(O)c12 [Compound 12r], the IC50 [9] is given as 5 µM.
For O=C(O[C@@H]1Cc2c(O)cc(O)cc2O[C@@H]1c1cc(O)c(O)c(O)c1)c1cc(O)c(O)c(O)c1 [EGCG, (−)-epigallocatechin-3-gallate], the IC50 [9] is listed as > 80 µM.
In the case of C#CCCCC(=O)OC(C)(C)C1CCC2(CO2)C(OC(=O)NC(Cc2c[nH]c3ccccc23)C(=O)OCc2ccccc2)C1 (stereo not shown) [MJE3], the IC50 [10] is given as 33 µM and the IC50 [11] is given as 19 µM.
For O=C1c2ccccc2C(=O)c2c1cc(S(=O)(=O)Nc1ccc(C(F)(F)F)cc1)c(O)c2O [PGMI-004A], the IC50 [9] is listed as 25.6 µM.
